Values quoted from earlier work as cited in patent US7749527B2, “Gel compositions for control of ecto-parasites” (Wyeth LLC, priority 2005, dated 2010).

System: fleas and ticks
Settings: companion animals

N#Cc1ccc(CC(=NNC(=O)Nc2ccc(OC(F)(F)F)cc2)c2cccc(C(F)(F)F)c2)cc1 [Metaflumizone, (E Z)-2-[2-(4-cyanophenyl)-1-[3-(trifluoromethyl)phenyl]ethylidene]-N-[4-(trifluoromethoxy)phenyl]hydrazinecarboxamide]
protection from fleas and ticks: 4-6 weeks
